# Test results reported in ChEMBL document CHEMBL4002623, “Synthesis and in vitro activity of dicationic indolyl diphenyl ethers as novel potent antibiotic agents against drug-resistant bacteria” (Bioorg Med Chem Lett, 2017).
# Key:
# Staphylococcus aureus [1] = assay: Antibacterial activity against methicillin-sensitive Staphylococcus aureus ATCC 29213 by agar dilution method; format: functional
# Staphylococcus aureus [2] = assay: Antibacterial activity against methicillin-resistant Staphylococcus aureus 09-13 by agar dilution method; format: functional
# [3] = tested on: Staphylococcus epidermidis; assay: Antibacterial activity against methicillin-sensitive Staphylococcus epidermidis ATCC 12228 by agar dilution method; format: functional
# [4] = tested on: Staphylococcus epidermidis; assay: Antibacterial activity against methicillin-resistant Staphylococcus epidermidis 09-3 by agar dilution method; format: functional
# Enterococcus faecalis [5] = assay: Antibacterial activity against vancomycin-sensitive Enterococcus faecalis ATCC 29212 by agar dilution method; format: functional
# Enterococcus faecalis [6] = assay: Antibacterial activity against vancomycin-resistant Enterococcus faecalis 09-9 by agar dilution method; format: functional
# Enterococcus faecium [7] = assay: Antibacterial activity against vancomycin-resistant Enterococcus faecium ATCC 700221 by agar dilution method; format: functional
# Escherichia coli [8] = assay: Antibacterial activity against extended-spectrum beta-lactamase-negative Escherichia coli ATCC 25922 by agar dilution method; format: functional
# Escherichia coli [9] = assay: Antibacterial activity against extended-spectrum beta-lactamase-positive Escherichia coli 09-1 by agar dilution method; format: functional
# Klebsiella pneumoniae [10] = assay: Antibacterial activity against extended-spectrum beta-lactamase-negative Klebsiella pneumoniae 7 by agar dilution method; format: functional
# Klebsiella pneumoniae [11] = assay: Antibacterial activity against extended-spectrum beta-lactamase-positive Klebsiella pneumoniae 09-25 by agar dilution method; format: functional
# Klebsiella pneumoniae [12] = assay: Antibacterial activity against Klebsiella pneumoniae ATCC BAA-2146 expressing NDM-1 by agar dilution method; format: functional
# [13] = Cytotoxicity against HEK293T cells after 48 hrs by MTS assay; format: cell-based, HEK-293T; details: human
# Enterococcus faecium [14] = assay: Antibacterial activity against vancomycin-sensitive Enterococcus faecium 09-10 by agar dilution method; format: functional
# Staphylococcus aureus [15] = assay: Antibacterial activity against methicillin-resistant Staphylococcus aureus ATCC 33591 by agar dilution method; format: functional
# Staphylococcus aureus [16] = assay: Antibacterial activity against methicillin-sensitive Staphylococcus aureus 15 by agar dilution method; format: functional
# Staphylococcus aureus [17] = assay: Antibacterial activity against methicillin-sensitive Staphylococcus aureus 09-6 by agar dilution method; format: functional
# [18] = tested on: Staphylococcus epidermidis; assay: Antibacterial activity against methicillin-sensitive Staphylococcus epidermidis 09-9 by agar dilution method; format: functional
# Enterococcus faecalis [19] = assay: Antibacterial activity against vancomycin-resistant Enterococcus faecalis ATCC 51299 by agar dilution method; format: functional
# Enterococcus faecalis [20] = assay: Antibacterial activity against vancomycin-sensitive Enterococcus faecalis 09-8 by agar dilution method; format: functional
# Enterococcus faecium [21] = assay: Antibacterial activity against vancomycin-resistant Enterococcus faecium 05-8 by agar dilution method; format: functional
# Escherichia coli [22] = assay: Antibacterial activity against extended-spectrum beta-lactamase-negative Escherichia coli 1515 by agar dilution method; format: functional
# Escherichia coli [23] = assay: Antibacterial activity against extended-spectrum beta-lactamase-negative Escherichia coli 09-20 by agar dilution method; format: functional
# Klebsiella pneumoniae [24] = assay: Antibacterial activity against extended-spectrum beta-lactamase-positive Klebsiella pneumoniae ATCC 700603 by agar dilution method; format: functional
# Klebsiella pneumoniae [25] = assay: Antibacterial activity against extended-spectrum beta-lactamase-negative Klebsiella pneumoniae 09-8 by agar dilution method; format: functional
# Pseudomonas aeruginosa [26] = assay: Antibacterial activity against Pseudomonas aeruginosa ATCC 27853 by agar dilution method; format: functional
# Pseudomonas aeruginosa [27] = assay: Antibacterial activity against Pseudomonas aeruginosa PAO1 by agar dilution method; format: functional
# Pseudomonas aeruginosa [28] = assay: Antibacterial activity against Pseudomonas aeruginosa 09-14 by agar dilution method; format: functional
# [29] = tested on: Acinetobacter calcoaceticus; assay: Antibacterial activity against Acinetobacter calcoaceticus ATCC 19606 by agar dilution method; format: functional
# Enterobacter cloacae = assay: Antibacterial activity against Enterobacter cloacae 45301 by agar dilution method; format: functional
# Klebsiella aerogenes = assay: Antibacterial activity against Enterobacter aerogenes 45102 by agar dilution method; format: functional
# Serratia marcescens = assay: Antibacterial activity against Serratia marcescens 41002 by agar dilution method; format: functional
# Morganella morganii = assay: Antibacterial activity against Morganella morganii ATCC 25830 by agar dilution method; format: functional
# Providencia rettgeri = assay: Antibacterial activity against Providencia rettgeri ATCC 31052 by agar dilution method; format: functional
# Proteus vulgaris = assay: Antibacterial activity against Proteus vulgaris ATCC 29905 by agar dilution method; format: functional
# Proteus mirabilis = assay: Antibacterial activity against Proteus mirabilis 09-1 by agar dilution method; format: functional
# Salmonella typhi = assay: Antibacterial activity against Salmonella typhi H901 by agar dilution method; format: functional, Salmonella enterica subsp. enterica serovar Typhi; details: Salmonella enterica
# Citrobacter freundii = assay: Antibacterial activity against Citrobacter freundii ATCC 43864 by agar dilution method; format: functional
# Staphylococcus aureus [30] = assay: Potency index, ratio of levofloxacin MIC to test compound MIC for methicillin-resistant Staphylococcus aureus 09-13; format: functional
# [31] = tested on: Staphylococcus epidermidis; assay: Potency index, ratio of levofloxacin MIC to test compound MIC for methicillin-resistant Staphylococcus epidermidis 09-3; format: functional
# Staphylococcus aureus [32] = assay: Potency index, ratio of vancomycin MIC to test compound MIC for methicillin-resistant Staphylococcus aureus 09-13; format: functional
# [33] = tested on: Staphylococcus epidermidis; assay: Potency index, ratio of vancomycin MIC to test compound MIC for methicillin-resistant Staphylococcus epidermidis 09-3; format: functional
# Enterococcus faecalis [34] = assay: Potency index, ratio of vancomycin MIC to test compound MIC for vancomycin-resistant Enterococcus faecalis 09-9; format: functional
# Enterococcus faecium [35] = assay: Potency index, ratio of vancomycin MIC to test compound MIC for vancomycin-resistant Enterococcus faecium ATCC 700221; format: functional
compound,measurement,setting,value
N=C(NC1CCC1)c1ccc2cc(-c3ccc(Oc4ccc(-c5cc6ccc(C(=N)NC7CCC7)cc6[nH]5)cc4)cc3)[nH]c2c1,MIC,Staphylococcus aureus [1],64 µg/mL
same,MIC,Staphylococcus aureus [2],64 µg/mL
same,MIC,[3],8 µg/mL
same,MIC,[4],16 µg/mL
same,MIC,Enterococcus faecalis [5],64 µg/mL
same,MIC,Enterococcus faecalis [6],64 µg/mL
same,MIC,Enterococcus faecium [7],32 µg/mL
same,MIC,Escherichia coli [8],> 128 µg/mL
same,MIC,Escherichia coli [9],> 128 µg/mL
same,MIC,Klebsiella pneumoniae [10],> 128 µg/mL
same,MIC,Klebsiella pneumoniae [11],> 128 µg/mL
same,MIC,Klebsiella pneumoniae [12],> 128 µg/mL
same,CC50 at 48 h,[13],32.6 µg/mL
same,MIC,Enterococcus faecium [14],64 µg/mL
same,MIC,Staphylococcus aureus [15],64 µg/mL
same,MIC,Staphylococcus aureus [16],64 µg/mL
same,MIC,Staphylococcus aureus [17],64 µg/mL
same,MIC,[18],8 µg/mL
same,MIC,Enterococcus faecalis [19],64 µg/mL
same,MIC,Enterococcus faecalis [20],64 µg/mL
same,MIC,Enterococcus faecium [21],> 128 µg/mL
same,MIC,Escherichia coli [22],> 128 µg/mL
same,MIC,Escherichia coli [23],> 128 µg/mL
same,MIC,Klebsiella pneumoniae [24],> 128 µg/mL
same,MIC,Klebsiella pneumoniae [25],> 128 µg/mL
same,MIC,Pseudomonas aeruginosa [26],> 128 µg/mL
same,MIC,Pseudomonas aeruginosa [27],> 128 µg/mL
same,MIC,Pseudomonas aeruginosa [28],> 128 µg/mL
same,MIC,[29],> 128 µg/mL
same,MIC,Enterobacter cloacae,> 128 µg/mL
same,MIC,Klebsiella aerogenes,> 128 µg/mL
same,MIC,Serratia marcescens,> 128 µg/mL
same,MIC,Morganella morganii,> 128 µg/mL
same,MIC,Providencia rettgeri,> 128 µg/mL
same,MIC,Proteus vulgaris,> 128 µg/mL
same,MIC,Proteus mirabilis,> 128 µg/mL
same,MIC,Salmonella typhi,> 128 µg/mL
same,MIC,Citrobacter freundii,> 128 µg/mL
CNC(=N)c1ccc2cc(-c3ccc(Oc4ccc(-c5cc6ccc(C(=N)NC)cc6[nH]5)cc4)cc3)[nH]c2c1,MIC,Staphylococcus aureus [1],1 µg/mL
same,MIC,Staphylococcus aureus [2],0.5 µg/mL
same,MIC,[3],0.25 µg/mL
same,MIC,[4],0.5 µg/mL
same,MIC,Enterococcus faecalis [5],1 µg/mL
same,MIC,Enterococcus faecalis [6],1 µg/mL
same,MIC,Enterococcus faecium [7],0.5 µg/mL
same,MIC,Escherichia coli [8],128 µg/mL
same,MIC,Escherichia coli [9],128 µg/mL
same,MIC,Klebsiella pneumoniae [10],> 128 µg/mL
same,MIC,Klebsiella pneumoniae [11],> 128 µg/mL
same,MIC,Klebsiella pneumoniae [12],> 128 µg/mL
same,CC50 at 48 h,[13],12.2 µg/mL
same,MIC,Enterococcus faecium [14],1 µg/mL
same,MIC,Staphylococcus aureus [15],1 µg/mL
same,MIC,Staphylococcus aureus [16],1 µg/mL
same,MIC,Staphylococcus aureus [17],1 µg/mL
same,MIC,[18],1 µg/mL
same,MIC,Enterococcus faecalis [19],1 µg/mL
same,MIC,Enterococcus faecalis [20],1 µg/mL
same,MIC,Enterococcus faecium [21],2 µg/mL
same,MIC,Escherichia coli [22],128 µg/mL
same,MIC,Escherichia coli [23],> 128 µg/mL
same,MIC,Klebsiella pneumoniae [24],> 128 µg/mL
same,MIC,Klebsiella pneumoniae [25],> 128 µg/mL
same,MIC,Pseudomonas aeruginosa [26],> 128 µg/mL
same,MIC,Pseudomonas aeruginosa [27],> 128 µg/mL
same,MIC,Pseudomonas aeruginosa [28],> 128 µg/mL
same,MIC,[29],> 128 µg/mL
same,MIC,Enterobacter cloacae,> 128 µg/mL
same,MIC,Klebsiella aerogenes,> 128 µg/mL
same,MIC,Serratia marcescens,> 128 µg/mL
same,MIC,Morganella morganii,128 µg/mL
same,MIC,Providencia rettgeri,> 128 µg/mL
same,MIC,Proteus vulgaris,> 128 µg/mL
same,MIC,Proteus mirabilis,> 128 µg/mL
same,MIC,Salmonella typhi,128 µg/mL
same,MIC,Citrobacter freundii,> 128 µg/mL
same,Ratio,Staphylococcus aureus [30],16 - 32
same,Ratio,[31],16 - 32
same,Ratio,Staphylococcus aureus [32],4 - 8
same,Ratio,[33],4 - 8
same,Ratio,Enterococcus faecalis [34],128 - 256
same,Ratio,Enterococcus faecium [35],128 - 256
